From US5984868A, “Device for measuring an absorbed dose of gas by skin and method therefor” (Institute of Occupational Safety and Health, Council of …, priority 1998, dated 1999)
“And” between values parts separate entries of the source, which are not always exact repeats. Equal entries are not always repeated.

Legend:
[1] = Absorbed dose of vapor by skin of an arm in feedback-controlled exposure chamber, six voluntary subjects (Embodiment 1, 300±10 ppm); format: in vivo, human; conditions: human, topical or ocular, 300±10 ppm vapor; mean of six subjects; read-out: permeability constant, mean (converted)
Protocol: (§1) The injection rate of the injection system was checked with a five-digit balance (Mettler model AT-201, Switzerland). 2-methoxy ethanol was continuously injected into a glass bottle, and six continuous injections were measured to obtain the average value and the coefficient of variation. Each continuous injection had 10 injection does. An average injection dose was obtained from the […] injection doses. The average dose of each ejection was then used as a computation base for checking the injection dose of the system. After each human experiment, the above weight calibration was used again to check the average injection dose of each ejection so as to obtain the relative percentage error of the average injection doses before and after the experiment. The flash evaporation chamber is a small glass chamber which is embraced by a heating strap and a temperature control device, as shown in FIG. 1. The flash evaporation chamber was used to accelerate the evaporation of the liquid 2-methoxy ethanol and to shorten the reaction time of the system. When the evaporation of the liquid was slower than the skin absorption rate, it will cause the injection system to continuously inject the 2-methoxy ethanol, and thus result in an excess absorption dose of the vapor by the skin of the human under test. The flash evaporation chamber of the present invention can avoid this problem by providing with the heating strap.
(§2) The measurement of the absorbed dose of vapor by skin was carried out respectively with each of six voluntary subjects whose personal data are shown in the following Table 3:
(§3) The method of the first embodiment is illustrated in FIG. 1 in which the arm of a subject is shown being put into an exposure chamber. The exposure chamber contains 2-methoxy ethanol having a concentration of 300±10 ppm, with the relative humidity and the temperature of the exposure chamber being respectively 80±2%, and 25±1° C. For details of the control of the first embodiment, please refer to the Preparatory Embodiments described above.
(§4) According, m5 can be justifiably ignored.

[2] = tested on: skin; assay: as above; format: in vivo, human
Protocol: as §1, §2, §3, §4

[3] = 2-methoxy ethanol dose in the subject's exhalation; format: in vivo; conditions: human, exhaled air, topical or ocular; of the total absorbed dose; read-out: 2-methoxy ethanol doses in the subject's exhalation, share of total absorbed dose
Source text: as §4

[4] = Johanson et al, 1988; cited from earlier work
[5] = general statement, no test shown; cited from earlier work
[6] = tested on: skin; assay: Absorbed dose of vapor by skin in exposure chamber (Embodiment 2, 25±1.5 ppm); conditions: 25±1.5 ppm vapor
Source text: The test concentration of the hazardous gas is 25 ppm in compliance with the allowable limit set forth by OSHA. In light of the lack of an exposure chamber large enough to accommodate a human body in its entirety, a small exposure chamber was used to investigate the absorption of the hazardous gas by the skin of an arm. On the basis of the result of the hand, the absorption of the hazardous gas by the skin of the whole body was estimated. […] The hand and the arm of a worker are often exposed on the job and are therefore used as subjects of the investigation. It is also assumed that the gas absorption rate of the skin of a hand is about equal to the average value of the gas absorption rate of the skin of the whole body. […] As a result, an absorbed dose of 300 ppm by a hand is about corresponding to an absorbed dose of 15 ppm by a whole body (300 ppm*1,250 cm^2 /18,000 cm^2 * 0.75). […] The digital signals were then transmitted to a computer (Pentium 100). When the concentration signal of the hazardous gas contained in the exposure chamber received by the computer was lower than the lower limit of 23.5 ppm, an instruction was generated by the software program and transmitted to activate the automatic injection system to raise quickly the concentration up to the upper limit of 26.5 ppm. […] Throughout the experiment of the present invention, a series of injected doses of the hazardous gas were obtained. The sum of the injected doses was used to compute the absorbed dose of the hazardous gas by the skin.
The rotation speeds of the two fans were adjusted to obtain desired wind velocities and flow streams by using an adjustable resistor. […] When the hand was extended into the exposure chamber, the contact portions of the hand and the exposure chamber were covered with two layers of aluminum foil in conjunction with a transparent plastic bag therebetween. In addition, the upper arm was banded with the 3M bandage to avert the gas leak. Located respectively in the front, the middle and the rear of the exposure chamber was a detector for monitoring the uniformity of the gas concentration distribution and the change in the gas concentration throughout the experiment.
It must be noted here that m1 is equal to the post-calibration injection rate multiplied by the accumulated injection times. […] This implies that only m1 and m2 must be measured with precision.

[7] = 300±10 ppm vapor, 80±2% RH, 25±1° C., arm, individual subjects 1-6
[8] = 300±10 ppm vapor, mean of six subjects

## COCCO [2-methoxy ethanol]
[1]
  Papp: 3890 ×10⁻⁶ cm/s
[2]; [7]
  m1 (accumulated doses added to stabilize the concentration in the exposure chamber): 430.00 mg and 296.88 mg and 172.46 mg and 285.11 mg and 350.67 mg and 394.56 mg
  m2 (doses captured by the condensation dehumidifier): 328.50 mg and 222.75 mg and 137.75 mg and 210.00 mg and 301.00 mg and 304.75 mg
  m3 (gas residual left on the exposed arm after termination of exposure): 0.35 mg and 0.58 mg and 0.66 mg and 0.63 mg and 0.16 mg
  permeability constant: 20.07 cm/h and 16.56 cm/h and 5.95 cm/h and 16.23 cm/h and 9.14 cm/h and 16.09 cm/h
  skin absorption rate: 18.72 μg/cm^2 /h and 15.45 μg/cm^2 /h and 5.55 μg/cm^2 /h and 15.14 μg/cm^2 /h and 8.52 μg/cm^2 /h and 15.01 μg/cm^2 /h
  Δm (absorbed dose by skin, m1-m2-m3-m4): 96.11 mg and 68.51 mg and 29.01 mg and 69.44 mg and 44.04 mg and 84.61 mg
[2]; [8]
  skin absorption rate, mean: 13.07 μg/cm^2 /h
  Δm (absorbed dose by skin), mean: 65.29 mg
[2]; of the dose of m1
  m3 and m4, respectively, relative to the dose of m1: less than 1%
[3]
  dose excreted: < 0.4%
[4]
  distribution coefficient of the human blood relative to air: 32,836
[5]
  water solubility: excellent
[6]
  m1 (accumulated doses added to the exposure chamber): 34.5 mg
  m2 (doses captured by the condensation dehumidifier): 27.1 mg
  m3 (gas residual left on the exposed arm): 0.04 mg
  m5 (doses contained in the subject's exhalations): trace
